From ChEMBL document CHEMBL2094195, “Structure-activity relationship data for a series of N-(phenylmehtyl)-2-(1H-pyrazol-4-yl)acetamide and N-(phenylmethyl)2-(4-isoxazolyl) acetamide antagonists of the P2X7 receptor (Supplementary Bioactivity Data for publication CHEMBL1157114)”

These molecules were tested against T1, P2X purinoceptor 7 (Homo sapiens, UniProt Q99572) (assay: SUPPLEMENTARY: Inhibition of human P2X7 receptor assessed as inhibition of ethidium bromide accumulation. Same assay as CHEMBL1103860).
T1 sequence (Q99572 whole entry): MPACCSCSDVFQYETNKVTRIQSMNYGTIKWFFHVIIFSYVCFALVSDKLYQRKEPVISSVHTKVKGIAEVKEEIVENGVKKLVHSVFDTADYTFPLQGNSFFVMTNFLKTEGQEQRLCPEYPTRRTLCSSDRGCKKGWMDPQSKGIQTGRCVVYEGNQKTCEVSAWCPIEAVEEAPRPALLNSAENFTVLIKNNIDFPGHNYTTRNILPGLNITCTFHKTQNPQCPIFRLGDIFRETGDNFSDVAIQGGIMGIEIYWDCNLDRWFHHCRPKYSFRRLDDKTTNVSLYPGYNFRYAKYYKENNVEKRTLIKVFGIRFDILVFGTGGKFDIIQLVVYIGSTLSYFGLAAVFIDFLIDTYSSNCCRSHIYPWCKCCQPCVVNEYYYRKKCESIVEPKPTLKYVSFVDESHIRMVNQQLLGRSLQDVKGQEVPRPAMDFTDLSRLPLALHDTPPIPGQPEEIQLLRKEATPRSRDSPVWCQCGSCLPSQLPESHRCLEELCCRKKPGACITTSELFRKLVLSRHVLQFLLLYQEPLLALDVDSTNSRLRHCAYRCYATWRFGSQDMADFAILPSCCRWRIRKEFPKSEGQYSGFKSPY

Row | SMILES | IC50
1 | Cc1n[nH]c(C)c1CC(=O)NCc1ccc(Br)cc1F | 50.1 nM
2 | Cc1n[nH]c(C)c1CC(=O)N[C@H]1CCCc2ccccc21 | 100 nM
3 | Cc1noc(C)c1CC(=O)NCc1ccccc1Cl | 100 nM
4 | Cc1ccccc1CNC(=O)Cc1c(C)noc1C | 501 nM
5 | Cc1noc(C)c1CC(=O)NCc1cccc(Cl)c1F | 200 nM
6 | Cc1noc(C)c1CC(=O)NCc1cccc(Cl)c1Cl | 31.6 nM
7 | Cc1ccc(CNC(=O)Cc2c(C)noc2C)c(C)c1 | 251 nM
8 | Cc1noc(C)c1CC(=O)NCc1cccc(Cl)c1C | 25.1 nM
9 | Cc1n[nH]c(C)c1CC(=O)NCc1c(F)cccc1Cl | 158 nM
10 | Cc1ccc(F)c(CNC(=O)Cc2c(C)n[nH]c2C)c1Cl | 79.4 nM
11 | Cc1n[nH]c(C(F)(F)F)c1CC(=O)NCc1ccc(F)c(F)c1Cl | 5.01 nM
12 | Cc1n[nH]c(C)c1CC(=O)NCc1c(Cl)cccc1Cl | 31.6 nM
13 | Cc1n[nH]c(C)c1CC(=O)NCc1ccc(C(F)(F)F)cc1 | 398 nM
14 | Cc1cccc(Cl)c1CNC(=O)Cc1c(C)noc1C | 25.1 nM
15 | Cc1ccc(Cl)c(CNC(=O)Cc2c(C)n[nH]c2C)c1F | 631 nM
16 | Cc1cccc(CNC(=O)Cc2c(C)noc2C)c1C | 200 nM
17 | Cc1n[nH]c(C(F)(F)F)c1CC(=O)NCc1cccc(C(F)(F)F)c1Cl | 2.51 nM
18 | Cc1ccccc1CNC(=O)Cc1c(C)n[nH]c1C | 158 nM
19 | Cc1n[nH]c(C)c1CC(=O)NCc1ccc(F)c(F)c1F | 63.1 nM

Row | SMILES | IC50
20 | CCc1n[nH]c(CC)c1CC(=O)NCc1ccc(F)c(F)c1F | 31.6 nM
21 | Cc1ccc(F)c(CNC(=O)Cc2c(C)noc2C)c1Cl | 200 nM
22 | Cc1[nH]nc(C(C)(C)C)c1CC(=O)NCc1ccc(F)cc1Cl | 158 nM
23 | Cc1noc(C)c1CC(=O)NCc1ccc(F)c(F)c1Cl | 31.6 nM
24 | Cc1n[nH]c(C)c1CC(=O)NCc1cc(F)ccc1Cl | 398 nM
25 | Cc1noc(C)c1CC(=O)NCc1ccccc1Br | 501 nM
26 | CC(C)c1n[nH]c(C(C)C)c1CC(=O)NCc1ccc(F)c(F)c1F | 158 nM
27 | Cc1n[nH]c(C)c1CC(=O)NCc1ccccc1Br | 251 nM
28 | CC(C)c1noc(C(C)C)c1CC(=O)NCc1ccc(F)cc1Cl | 158 nM
29 | Cc1ccc(CNC(=O)Cc2c(C)n[nH]c2C)c(C)c1 | 158 nM
30 | Cc1n[nH]c(C)c1CC(=O)NCc1ccc(Cl)c(Cl)c1 | 200 nM
31 | Cc1n[nH]c(C)c1CC(=O)NCc1cccc(Cl)c1C | 5.01 nM
32 | Cc1ccc(CNC(=O)Cc2c(C)noc2C)c(F)c1F | 794 nM
33 | Cc1n[nH]c(C)c1CC(=O)NCc1cc(Cl)ccc1Cl | 316 nM
34 | Cc1noc(C)c1CC(=O)NCc1c(Cl)cccc1Cl | 63.1 nM
35 | CCc1noc(CC)c1CC(=O)NCc1ccc(F)cc1Cl | 39.8 nM
36 | Cc1n[nH]c(C)c1CC(=O)NCc1cc(Cl)cc(Cl)c1 | 1000 nM
37 | Cc1cccc(Cl)c1CNC(=O)Cc1c(C)n[nH]c1C | 15.8 nM

Results, then the molecule that gave them:

Row | IC50 | SMILES
38 | 794 nM | Cc1noc(C)c1CC(=O)NCc1ccc(Cl)cc1
39 | 25.1 nM | Cc1cc(Cl)ccc1CNC(=O)Cc1c(C)noc1C
40 | 158 nM | Cc1noc(C)c1CC(=O)NCc1ccc(F)c(F)c1F
41 | 316 nM | Cc1noc(C)c1CC(=O)NCc1ccc(Cl)c(Cl)c1
42 | 100 nM | Cc1cc(F)ccc1CNC(=O)Cc1c(C)noc1C
43 | 10 nM | Cc1noc(C)c1CC(=O)NCc1cccc(C(F)(F)F)c1C
44 | 398 nM | Cc1noc(C)c1CC(=O)NCc1c(F)cccc1Cl
45 | 158 nM | Cc1noc(C)c1CC(=O)NCc1ccc(Cl)c(C(F)(F)F)c1
46 | 50.1 nM | Cc1n[nH]c(C)c1CC(=O)NCc1ccc(F)c(C(F)(F)F)c1
47 | 200 nM | Cc1noc(C)c1CC(=O)NCc1ccc(F)cc1C(F)(F)F
48 | 31.6 nM | Cc1noc(C)c1CC(=O)NCc1cccc(C(F)(F)F)c1F
49 | 501 nM | Cc1noc(C)c1CC(=O)NCc1ccc(F)cc1F
50 | 1000 nM | Cc1noc(C)c1CC(=O)NCc1cccc(F)c1C
51 | 158 nM | Cc1ccc(CNC(=O)Cc2c(C)noc2C)c(F)c1
52 | 39.8 nM | Cc1noc(C)c1CC(=O)NCc1ccc(F)c(Cl)c1F
53 | 50.1 nM | Cc1noc(C)c1CC(=O)NCc1ccc(F)cc1Br
54 | 398 nM | Cc1noc(C)c1CC(=O)NCc1ccc(C(F)(F)F)c(F)c1
